Measured values taken from PMC3681809 (Cancer cell, 2013).

Molecular target: EZH1 (Homo sapiens, UniProt Q92800)
Assay: histone methyltransferase selectivity assay
Assay type: biochemical

Chain of EZH1 (Q92800 whole entry): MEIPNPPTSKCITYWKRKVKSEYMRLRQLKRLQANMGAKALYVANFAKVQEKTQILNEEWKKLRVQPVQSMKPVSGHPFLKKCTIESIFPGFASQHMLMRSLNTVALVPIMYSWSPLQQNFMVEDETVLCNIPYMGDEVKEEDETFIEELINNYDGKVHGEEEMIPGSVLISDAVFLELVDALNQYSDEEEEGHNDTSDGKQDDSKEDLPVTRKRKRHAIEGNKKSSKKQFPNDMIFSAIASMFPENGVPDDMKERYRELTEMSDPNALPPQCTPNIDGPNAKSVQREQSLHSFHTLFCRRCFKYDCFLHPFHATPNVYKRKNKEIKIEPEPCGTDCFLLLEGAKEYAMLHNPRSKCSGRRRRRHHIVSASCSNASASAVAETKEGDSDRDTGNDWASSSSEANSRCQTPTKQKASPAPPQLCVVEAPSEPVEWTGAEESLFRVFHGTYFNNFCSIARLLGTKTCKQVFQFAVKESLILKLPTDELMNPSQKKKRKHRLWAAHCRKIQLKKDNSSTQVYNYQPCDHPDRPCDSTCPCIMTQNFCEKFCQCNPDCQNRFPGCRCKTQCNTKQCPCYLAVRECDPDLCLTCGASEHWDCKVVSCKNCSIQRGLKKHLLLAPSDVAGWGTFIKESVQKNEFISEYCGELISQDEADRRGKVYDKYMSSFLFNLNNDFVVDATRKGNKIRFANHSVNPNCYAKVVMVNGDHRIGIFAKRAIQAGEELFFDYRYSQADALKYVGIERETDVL
Chain of EZH1 (O75530 2-441 partner): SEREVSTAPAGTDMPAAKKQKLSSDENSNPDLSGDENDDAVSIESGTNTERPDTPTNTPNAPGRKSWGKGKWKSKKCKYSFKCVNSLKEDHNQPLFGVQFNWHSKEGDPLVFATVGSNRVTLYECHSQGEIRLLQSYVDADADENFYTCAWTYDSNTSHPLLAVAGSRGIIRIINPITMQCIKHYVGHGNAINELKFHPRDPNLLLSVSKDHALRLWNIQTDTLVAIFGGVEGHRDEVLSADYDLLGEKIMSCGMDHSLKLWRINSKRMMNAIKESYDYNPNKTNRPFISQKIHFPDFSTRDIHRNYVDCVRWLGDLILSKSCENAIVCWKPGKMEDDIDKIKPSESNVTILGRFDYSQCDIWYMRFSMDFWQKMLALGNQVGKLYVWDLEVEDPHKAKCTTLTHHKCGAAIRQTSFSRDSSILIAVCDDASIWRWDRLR
Chain of EZH1 (Q15022 whole entry partner): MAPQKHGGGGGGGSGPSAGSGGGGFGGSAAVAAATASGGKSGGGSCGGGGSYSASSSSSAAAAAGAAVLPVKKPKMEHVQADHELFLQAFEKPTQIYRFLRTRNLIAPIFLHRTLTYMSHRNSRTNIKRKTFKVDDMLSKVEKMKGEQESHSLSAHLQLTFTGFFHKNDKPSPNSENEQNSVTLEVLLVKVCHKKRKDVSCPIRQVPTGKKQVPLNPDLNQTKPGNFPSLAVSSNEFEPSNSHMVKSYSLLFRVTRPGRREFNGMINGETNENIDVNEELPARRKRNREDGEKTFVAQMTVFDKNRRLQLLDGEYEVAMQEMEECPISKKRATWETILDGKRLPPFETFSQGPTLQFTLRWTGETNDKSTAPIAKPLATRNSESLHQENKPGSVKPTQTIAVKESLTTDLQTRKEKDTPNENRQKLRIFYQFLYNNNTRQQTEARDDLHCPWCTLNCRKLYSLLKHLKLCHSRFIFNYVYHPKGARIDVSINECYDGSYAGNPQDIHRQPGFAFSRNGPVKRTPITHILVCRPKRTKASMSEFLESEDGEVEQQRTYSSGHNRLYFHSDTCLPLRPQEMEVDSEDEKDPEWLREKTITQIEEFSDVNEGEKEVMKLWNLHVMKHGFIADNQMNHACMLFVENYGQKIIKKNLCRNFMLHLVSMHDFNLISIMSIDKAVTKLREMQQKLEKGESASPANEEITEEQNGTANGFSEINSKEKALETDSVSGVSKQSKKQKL

Ki: 636 nM
Compound: Cc1cc(C)c(CNC(=O)c2cc(-c3ccc(N4CCN(C)CC4)nc3)cc3c2c(C)cn3C(C)C)c(=O)[nH]1 [GSK503]
